Results from patent US20240317792A1, “CYCLIC DINUCLEOTIDE METAL COMPOUND, AND PREPARATION AND APPLICATION THEREOF” (HANGZHOU XINGAO BIOTECHNOLOGY CO., LTD., priority 2022, published 2024).

Assays:
[1] = system: amyloid plaques in the brains of the AD model mice; test: Thioflavin S dyeing of amyloid plaque deposition in brains of AD model mice; format: in vivo; settings: 10 mg/kg intraperitoneal once every 2 days, 60 days
Source text: Experimental materials, purchased from Shanghai Model Organisms Center Inc, were APP/PSI transgenic AD model mice, aged 4 months old and weighing 24-26 g. The AD model mice were randomly divided into 7 groups (10 mice in each group). The 7 groups were listed as follows: A: AD model group, as a negative control group (administration of normal saline); B: cGAMP group, as a positive control group (administration of cyclic dinucleotide); C: [Li2(cGAMP)] group (administration of lithium cyclic dinucleotide prepared in Example 1); D: [Mg(cGAMP)] group (administration of magnesium cyclic dinucleotide prepared in Example 2); E: [Zn(cGAMP)] group (administration of zinc cyclic dinucleotide prepared in Example 5); F: [Mn(cGAMP)] group (administration of manganese cyclic dinucleotide prepared in Example 3); G: [Fe(cGAMP)] group (administration of ferrous cyclic dinucleotide prepared in Example 4). The administration in groups C-G was performed as follows. The powdered cyclic dinucleotide metal compounds were prepared into solutions of required concentration with normal saline, respectively. The administration dosage was 10 mg/kg, and the administration was performed via intraperitoneal injection once every 2 days for 60 consecutive days.
This example conducted a Thioflavin S dyeing experiment including the following steps. 60 days after the drug administration, brain tissues of the AD model mice were taken and subjected to fixing, paraffin embedding, section, dimethylbenzene dewaxing, gradient dehydration with ethanol and washing with tris buffered saline (TBS) three times. 0.3 wt. % of Thioflavin S (dissolved in 50 wt. % of ethanol) was dropped onto the brain tissues. The brain tissues were incubated for 10 min followed by washing with 50 wt. % of ethanol, PBS-washing, shade drying and sealing. A laser scanning confocal microscope (Leica, Germany) was used to detect changes of an amount of amyloid plaque deposition in the brains of the AD model mice.

[2] = system: mouse colorectal cancer cell line CT26; test: Subcutaneously transplanted CT26 tumor growth inhibition; format: in vivo, BALB/c ordinary mice; settings: CT26 in BALB/c mice; 10 mg/kg intraperitoneal once every 2 days for 20 days
Source text: (§1) Experimental animals: BALB/c ordinary mice and C57BL/6 ordinary mice, male, weighing 20-22 grams, 7-8 weeks old, purchased from Shanghai SLAC Laboratory Animal Co. Ltd.
(§2) Tumour cell line: mouse colorectal cancer cell line CT26 and mouse breast cancer cell line 4T1, both purchased from Chinese Academy of Sciences Cell Bank.
(§3) Establishment and intervention of tumor model mice: cells were subjected to culture and subculture, collected in a logarithmic phase and prepared as 1.0×10^7/mL of cell suspension. 0.2 mL of the cell suspension was injected armpits of forelegs of the mice (with a cell number of 2.0×10^6), and tumor transplantation was successful in about 7 days. Mice with successful tumor transplantation were randomly divided into 7 groups (10 mice in each group). The 7 groups were listed as follows: A: negative control group (injection with normal saline); B: positive control cGAMP group (10 mg/kg of injection); C: [Li2(cGAMP)] group (10 mg/kg of injection); D: [Mg(cGAMP)] group (10 mg/kg of injection); E: [Zn(cGAMP)] group (10 mg/kg of injection); F: [Mn(cGAMP)] group (10 mg/kg of injection); and G: [Fe(cGAMP)] group (10 mg/kg of injection). The mice with successful tumor transplantation were subjected to administration by intraperitoneal injection with a volume of 200 μL per mice once every 2 days for 20 days. After 20 days, the mice with successful tumor transplantation were killed, and the tumor were weighed. A formula of inhibitory rate of tumor was as represented as inhibitory rate of tumor=[1−average tumor weight of experimental group/average tumor weight of the negative control group]×100%.
(§4) According to the establishment of tumor model mice, the mouse colorectal cancer cell line CT26 was cultured and transplanted to the BALB/c ordinary mice, and the mouse breast cancer cell line 4T1 was cultured and transplanted to the BALB/c ordinary mice.
(§5) Statistical analysis: data was expressed as mean±standard deviation and processed by the SPSS10.0 software. One-way ANOVA was used to detect and compare significance of tumor weights in each group.

IFN-β = IFN-β content in blood induced by the compounds, over time by ELISA; format: in vivo; settings: SD mice serum, sampled 0-24 h, peak of concentration change curve
Description: Experimental animals: SD mice, weighing 200-220 g, were purchased from Shanghai SLAC Laboratory Animal Co. Ltd.
Main test steps: The SD mice were randomly divided into 7 groups (10 mice in each group). The 7 groups were listed as follows: blank control group (injection of normal saline); cGAMP group; [Li2(cGAMP)] group; [Mg(cGAMP)] group; [Zn(cGAMP)] group; [Mn(cGAMP)] group; and [Fe(cGAMP)] group. At fixed time points (0 h, 1 h, 2 h, 4 h, 6 h, 8 h, 10 h, 12 h, 14 h, 16 h, 20 h, and 24 h), 1 mL of blood of each of the SD mice was taken through ophthalmic vein by a capillary, placed in a 1.5 mL of centrifuge tube followed by centrifugation for 30 min. Upper serum was collected and stored at −80° C. for use. Concentrations of cGAMP and IFN-β in the serum were determined by ELISA kit. Based on IFN-β induced by activation of innate immunity paths of the cGAMP and the cyclic dinucleotide metal compounds, a content of the IFN-β in the blood was detected, and stability and activation activity of immune path of the cGAMP and the cyclic dinucleotide metal compounds were evaluated. Concentration values (including cGAMP and IFN-β) in blood samples of the SD mice in each group were detected by the ELISA kit, and the concentration values and average values at each time point were calculated. A concentration change curve over time was drawn, and a peak of the concentration change curve was obtained.

[3] = system: mouse breast cancer cell line 4T1; test: Subcutaneously transplanted 4T1 tumor growth inhibition; format: in vivo, BALB/c ordinary mice; settings: 4T1 in BALB/c mice; 10 mg/kg intraperitoneal once every 2 days for 20 days
Source text: as §1, §2, §3, §4, §5

| Compound | Average points of amyloid plaque fluorescence intensity in the brain tissues of the AD mice (field of vision) [1] | Average inhibitory rate of the tumor [2] | Average tumor weight [2] | Time to peak serum IFN-β concentration (IFN-β) | Average inhibitory rate of tumor [3] | Average tumor weight [3] |
| --- | --- | --- | --- | --- | --- | --- |
| Nc1nc2c(ncn2C2OC3COP(=O)([O-])OC4C(COP(=O)([O-])OC2C3O)OC(n2cnc3c(N)ncnc32)C4O)c(=O)[nH]1.[Fe+2] (stereo not drawn) [[Fe(cGAMP)], ferrous cyclic dinucleotide] | 410 ± 91 | 83.5% | 0.301 ± 0.112 g | 5.6 h | 83.6% | 0.301 ± 0.116 g |
| Nc1nc2c(ncn2[C@@H]2O[C@@H]3COP(=O)([O-])O[C@H]4[C@@H](O)[C@H](n5cnc6c(N)ncnc65)O[C@@H]4COP(=O)([O-])O[C@@H]2[C@@H]3O)c(=O)[nH]1.[Li+].[Li+] [[Li2(cGAMP)], lithium cyclic dinucleotide] | 165 ± 75 | 63.0% | 0.675 ± 0.163 g | 5.6 h | 61.5% | 0.712 ± 0.146 g |
| Nc1nc2c(ncn2[C@@H]2O[C@@H]3COP(=O)([O-])O[C@H]4[C@@H](O)[C@H](n5cnc6c(N)ncnc65)O[C@@H]4COP(=O)([O-])O[C@@H]2[C@@H]3O)c(=O)[nH]1.[Mg+2] [[Mg(cGAMP)], magnesium cyclic dinucleotide] | 480 ± 80 | 65.2% | 0.635 ± 0.178 g | 5.9 h | 63.2% | 0.679 ± 0.183 g |
| Nc1nc2c(ncn2C2OC3COP(=O)([O-])OC4C(COP(=O)([O-])OC2C3O)OC(n2cnc3c(N)ncnc32)C4O)c(=O)[nH]1.[Mn+2] (stereo not drawn) [[Mn(cGAMP)], manganese cyclic dinucleotide] | 390 ± 87 | 85.8% | 0.258 ± 0.105 g | 6.0 h | 84.9% | 0.287 ± 0.116 g |
| Nc1nc2c(ncn2[C@@H]2O[C@@H]3COP(=O)([O-])O[C@H]4[C@@H](O)[C@H](n5cnc6c(N)ncnc65)O[C@@H]4COP(=O)([O-])O[C@@H]2[C@@H]3O)c(=O)[nH]1.[Zn+2] [[Zn(cGAMP)], zinc cyclic dinucleotide] | 360 ± 75 | 88.9% | 0.201 ± 0.123 g | 6.2 h | 89.1% | 0.212 ± 0.135 g |
| Nc1nc2c(ncn2[C@@H]2O[C@@H]3COP(=O)(O)O[C@H]4[C@@H](O)[C@H](n5cnc6c(N)ncnc65)O[C@@H]4COP(=O)(O)O[C@@H]2[C@@H]3O)c(=O)[nH]1 [cGAMP, 2′3′-cGAMP, reference compound] | 1790 ± 180 | 61.0% | 0.712 ± 0.145 g | 4.0 h | 58.8% | 0.761 ± 0.157 g |
